According to patent US11541006B2, “Aqueous formulation for insoluble drugs” (priority 2018, dated 2023):
≈ marks a conversion by molar mass, not a printed value. Structures can show the parent of a compound that is named as a salt.

Columns and labels:
[1] = Voriconazole solubility in LMBW versus binary/ternary mixtures of L, M, B and alcohol (Example 2); format: physicochemical; details: thermodynamic from solid
Method: For this study, voriconazole was used as the insoluble drug.
To determine solubility in each combination, voriconazole was added to each combination and mixed until it no longer would dissolve. For each mixture, the pH was adjusted to pH 4.5-5, equilibrated at room temperature, and then passed through a 0.2-micron filter. The filtrate was analyzed by HPLC for voriconazole concentration. Each HPLC-determined voriconazole concentration is noted as a “Voriconazole solubility” in the tables below.

[2] = Voriconazole stability versus pH and predicted F96 shelf life T90 (separate study); format: physicochemical
[3] = Solubility of insoluble drugs in F96 LMBW vehicle (Example 4); format: physicochemical; details: for solubility: aqueous with cosolvent or surfactant or cyclodextrin, thermodynamic from solid
Excerpt: Twenty-two (22) insoluble drugs having a wide variety of chemical structures (including chemical element, small molecule, peptide and protein), properties and biological activities (including drugs, diagnostic agents and nutritional supplement agents) were selected and tested for solubility in F96 LMBW vehicle as follows: • 1. Measure out a fixed amount of F96 vehicle. • 2. Add a known amount of an insoluble drug substance. • 3. Mix to dissolve the drug substance. • 4. […] Record the maximum amount of the insoluble drug substance that the F96 LMBW vehicle could dissolve and use this value to calculate the drug's solubility in the F96 LMBW vehicle.

physchem = details: for Appearance of the undiluted solutions / Appearance of the solutions after being diluted in an IV infusion fluid: RT, 24 hours; for Appearance of the solutions after being diluted in an IV infusion fluid: diluted to about 0.5 to 5 mg/mL
Method: Different amounts of voriconazole (20 to 60 mg/mL) were first dissolved in F145V and subsequently diluted in an IV infusion fluid, such as normal saline (NS), 5% dextrose in water (D5W), water for injection (WFI), or Lactated Ringers solution, to a final voriconazole concentration of about 0.5 to 5 mg/mL.

[4] = cited from earlier work; for Solubility according to USP definition: in water
[5] = Solubility of insoluble drugs in 16% SBECD aqueous solution (Example 27); details: for solubility: 16% SBECD aqueous solution, aqueous with cosolvent or surfactant or cyclodextrin, thermodynamic from solid; for Measured solubility in 16% SBECD: 16% sulfobutyl ether beta cyclodextrin aqueous solution
Excerpt: Add a known amount of an insoluble drug substance. • 3. Mix to dissolve the drug substance. • 4.

[6] = Solubility of disease-related insoluble solids in LMBW vehicle and PBS (Example 29); format: physicochemical; details: for solubility: thermodynamic from solid
Excerpt: These solids have very low solubility in the body fluids and therefore they have a high tendency to precipitate and to form the undesirable solid deposits in vivo. […] Weigh out a fixed amount of a solid of interest, • 2. […] Mix to dissolve the solid, • 4. If the solid has completely dissolved, add more until it is no longer dissolving in the vehicle • 5.

Molecule: C[C@@H](c1ncncc1F)[C@](O)(Cn1cncn1)c1ccc(F)cc1F [Voriconazole]
- solubility ([1]; LMBW (lecithin, MCT, bile acid, alcohols in water), pH 4.5, aqueous with cosolvent or surfactant or cyclodextrin): 29400 µg/mL
- solubility ([1]; MCT and alcohols in water), aqueous with cosolvent or surfactant or cyclodextrin, vehicle % wt in water: glycocholic acid 10.6, MCT 15, benzyl alcohol 4.5, ethanol 6.5, emulsion, opaque, pH 4.5-5, RT): 8000 µg/mL
- solubility ([1]; MCT and alcohols in water), aqueous with cosolvent or surfactant or cyclodextrin, vehicle % wt in water: lecithin 25, MCT 15, benzyl alcohol 4.5, ethanol 6.5, emulsion, opaque, pH 4.5-5, RT): 19800 µg/mL
- solubility ([1]; alcohol solution (benzyl alcohol and ethanol in water), pH 4.5, aqueous with cosolvent or surfactant or cyclodextrin): 1100 µg/mL
- solubility ([1]; aqueous with cosolvent or surfactant or cyclodextrin, vehicle % wt in water: MCT 15, emulsion, opaque, pH 4.5-5, RT): 500 µg/mL
- solubility ([1]; aqueous with cosolvent or surfactant or cyclodextrin, vehicle % wt in water: glycocholic acid 10.6, micelle solution, hazy, pH 4.5-5, RT): 2100 µg/mL
- solubility ([1]; aqueous with cosolvent or surfactant or cyclodextrin, vehicle % wt in water: lecithin 25, glycocholic acid 10.6, benzyl alcohol 4.5, ethanol 6.5, micelle solution, hazy, pH 4.5-5, RT): 8000 µg/mL
- solubility ([1]; aqueous with cosolvent or surfactant or cyclodextrin, vehicle % wt in water: lecithin 25, liposome, hazy, pH 4.5-5, RT): 800 µg/mL
- solubility ([1]; emulsion (MCT and alcohols in water), aqueous with cosolvent or surfactant or cyclodextrin, vehicle % wt in water: MCT 15, benzyl alcohol 4.5, ethanol 6.5, emulsion, opaque, pH 4.5-5, RT): 19400 µg/mL
- solubility ([1]; emulsion (glycocholic acid and MCT in water), aqueous with cosolvent or surfactant or cyclodextrin, vehicle % wt in water: glycocholic acid 10.6, MCT 15, emulsion, opaque, pH 4.5-5, RT): 3100 µg/mL
- solubility ([1]; emulsion (lecithin and MCT in water), aqueous with cosolvent or surfactant or cyclodextrin, vehicle % wt in water: lecithin 25, MCT 15, emulsion, opaque, pH 4.5-5, RT): 1400 µg/mL
- solubility ([1]; liposome (lecithin and alcohols in water), aqueous with cosolvent or surfactant or cyclodextrin, vehicle % wt in water: lecithin 25, benzyl alcohol 4.5, ethanol 6.5, liposome, hazy, pH 4.5-5, RT): 13700 µg/mL
- solubility ([1]; micelle solution (glycocholic acid and alcohols in water), aqueous with cosolvent or surfactant or cyclodextrin, vehicle % wt in water: glycocholic acid 10.6, benzyl alcohol 4.5, ethanol 6.5, micelle solution, hazy, pH 4.5-5, RT): 7600 µg/mL
- solubility ([1]; micelle solution (lecithin and glycocholic acid in water), aqueous with cosolvent or surfactant or cyclodextrin, vehicle % wt in water: lecithin 25, glycocholic acid 10.6, micelle solution, hazy, pH 4.5-5, RT): 7100 µg/mL
- pH at which most stable in an aqueous solution [2]: ~4
- solubility [3]: 20000 µg/mL (≈ 57.3 mM)
- Solubility increase over water (physchem): 86 folds
- Appearance of the undiluted solutions (physchem; 20 mg/mL added to F145V): Clear & one-phase solution
- Appearance of the solutions after being diluted in an IV infusion fluid (physchem; 20 mg/mL in F145V): Clear & one-phase solution
- Appearance of the undiluted solutions (physchem; 30 mg/mL added to F145V): Clear & one-phase solution
- Appearance of the solutions after being diluted in an IV infusion fluid (physchem; 30 mg/mL in F145V): Clear & one-phase solution
- Appearance of the undiluted solutions (physchem; 40 mg/mL added to F145V): Clear & one-phase solution
- Appearance of the solutions after being diluted in an IV infusion fluid (physchem; 40 mg/mL in F145V): Slight precipitation
- Appearance of the undiluted solutions (physchem; 50 mg/mL added to F145V): Clear & one-phase solution
- Appearance of the solutions after being diluted in an IV infusion fluid (physchem; 50 mg/mL in F145V): Major precipitation
- Appearance of the undiluted solutions (physchem; 60 mg/mL added to F145V): Clear & one-phase solution
- Appearance of the solutions after being diluted in an IV infusion fluid (physchem; 60 mg/mL in F145V): Major precipitation
- solubility at 24 h (physchem; aqueous with cosolvent or surfactant or cyclodextrin): ≥ 60000 µg/mL
- Solubility according to USP definition [4]: Insoluble
- Solubility in water ([4]; water, 25° C.): about 0.7 mg/mL
- Reported solubility in water ([4]; water): 0.7 mg/mL
- solubility [5]: 8600 µg/mL (≈ 24.6 mM)

Molecule: C[C@@H]1[C@H](O)[C@@H](C)/C=C/C=C/C=C/C=C/C=C/C=C/C=C/[C@H](O[C@@H]2O[C@H](C)[C@@H](O)[C@H](N)[C@@H]2O)C[C@@H]2O[C@](O)(C[C@@H](O)C[C@@H](O)[C@H](O)CC[C@@H](O)C[C@@H](O)CC(=O)O[C@H]1C)C[C@H](O)[C@H]2C(=O)O [Amphotericin]
- solubility [3]: 2400 µg/mL (≈ 2.6 mM)
- Solubility according to USP definition [4]: Insoluble
- Reported solubility in water ([4]; water): <0.0001 mg/mL
- solubility [5]: 70 µg/mL (≈ 0.0758 mM)

Molecule: CC[C@H]1OC(=O)[C@H](C)[C@@H](O[C@H]2C[C@@](C)(OC)[C@@H](O)[C@H](C)O2)[C@H](C)[C@@H](O[C@@H]2O[C@H](C)C[C@H](N(C)C)[C@H]2O)[C@](C)(OC)C[C@@H](C)C(=O)[C@H](C)[C@@H](O)[C@]1(C)O [Clarithromycin]
- solubility [3]: 9100 µg/mL (≈ 12.2 mM)
- Solubility according to USP definition [4]: Practically
- Reported solubility in water ([4]; water): <0.0001 mg/mL
- solubility [5]: 1710 µg/mL (≈ 2.29 mM)

Molecule: CCc1c2c(nc3ccc(OC(=O)N4CCC(N5CCCCC5)CC4)cc13)-c1cc3c(c(=O)n1C2)COC(=O)[C@]3(O)CC [Irinotecan HCl]
- solubility [3]: 20400 µg/mL
- Solubility according to USP definition [4]: Insoluble
- Reported solubility in water ([4]; water): <0.0001 mg/mL
- solubility [5]: 2120 µg/mL

Molecule: CC(C)Cc1ccc(C(C)C(=O)O)cc1 (centres unmarked) [Ibuprofen]
- solubility [3]: 53100 µg/mL (≈ 257 mM)
- Solubility according to USP definition [4]: Sparingly
- solubility [5]: 3580 µg/mL (≈ 17.4 mM)

Molecule: CC[C@@]1(O)C(=O)OCc2c1cc1n(c2=O)Cc2cc3ccccc3nc2-1 [Camptothecin]
- solubility [3]: 500 to 1000 µg/mL (≈ 1.44 to 2.87 mM)
- Solubility according to USP definition [4]: Insoluble
- Reported solubility in water ([4]; water): <0.0001 mg/mL
- solubility [5]: 60 µg/mL (≈ 0.172 mM)

Molecule: CCC(C)n1ncn(-c2ccc(N3CCN(c4ccc(OCC5COC(Cn6cncn6)(c6ccc(Cl)cc6Cl)O5)cc4)CC3)cc2)c1=O (centres unmarked) [Intraconazole]
- Measured solubility in F96 LMBW Vehicle ([3]; stepwise addition until no longer dissolving): 500 to 1000 µg/mL
- Solubility according to USP definition [4]: Insoluble
- Reported solubility in water ([4]; water): <0.0001 mg/mL
- Measured solubility in 16% SBECD [5]: 170 µg/mL

Molecule: C[C@@H](O[C@H]1OCCN(Cc2n[nH]c(=O)[nH]2)[C@H]1c1ccc(F)cc1)c1cc(C(F)(F)F)cc(C(F)(F)F)c1 [Aprepitant]
- solubility [3]: 12700 µg/mL (≈ 23.8 mM)
- Solubility according to USP definition [4]: Practically
- Reported solubility in water ([4]; water): <0.0001 mg/mL
- solubility [5]: 150 µg/mL (≈ 0.281 mM)

Molecule: CC(C)c1cccc(C(C)C)c1O [Propofol]
- solubility [3]: 50800 µg/mL (≈ 285 mM)
- Solubility according to USP definition [4]: Insoluble
- Reported solubility in water ([4]; water): <0.0001 mg/mL
- solubility [5]: 56600 µg/mL (≈ 317 mM)

Molecule: O=c1[nH]c(=O)c2[nH]c([O-])nc2[nH]1.[Na+] [Mono sodium urate]
- Solubility in PBS ([6]; phosphate buffered saline): <1 µg/mL
- Measured solubility in F96 LMBW Vehicle ([6]; vehicle at pH 7): 50 µg/mL

Molecule: Oc1ccc(C=Cc2cc(O)cc(O)c2)cc1 [Resveratrol]
- solubility [3]: 9000 µg/mL (≈ 39.4 mM)
- Solubility according to USP definition [4]: Insoluble
- Reported solubility in water ([4]; water): <0.0001 mg/mL
- solubility [5]: 4850 µg/mL (≈ 21.2 mM)

Molecule: CC(C)CCC[C@@H](C)[C@H]1CC[C@H]2[C@@H]3CC=C4C[C@@H](O)CC[C@]4(C)[C@H]3CC[C@]12C [Cholesterol]
- solubility ([6]; F96 LMBW vehicle, aqueous with cosolvent or surfactant or cyclodextrin, vehicle at pH 7): 25000 µg/mL (≈ 64.7 mM)
- solubility ([6]; phosphate buffered saline, aqueous buffer, read-out: Solubility in PBS): 50 µg/mL (≈ 0.129 mM)

Molecule: N[C@@H](Cc1ccc(O)c(O)c1)C(=O)O [Levodopa]
- solubility [3]: 10000 µg/mL (≈ 50.7 mM)
- Solubility according to USP definition [4]: Slightly soluble (100-1000)
- solubility [5]: 2130 µg/mL (≈ 10.8 mM)

Molecule: Casein
- Solubility according to USP definition [4]: Very poorly
- Reported solubility in water ([4]; water): 0.001-0.0001 mg/mL
- Measured solubility in 16% SBECD [5]: 150 µg/mL

Molecule: CC(=O)O[C@H]1C(=O)[C@@]2(C)[C@H]([C@H](OC(=O)c3ccccc3)[C@]3(O)C[C@H](OC(=O)[C@H](O)[C@@H](NC(=O)c4ccccc4)c4ccccc4)C(C)=C1C3(C)C)[C@]1(OC(C)=O)CO[C@@H]1C[C@@H]2O [Paclitaxel]
- Solubility according to USP definition [4]: Insoluble
- Reported solubility in water ([4]; water): <0.0001 mg/mL

Molecule: CC[C@@H]([C@H](C)O)n1ncn(-c2ccc(N3CCN(c4ccc(OC[C@@H]5CO[C@@](Cn6cncn6)(c6ccc(F)cc6F)C5)cc4)CC3)cc2)c1=O [Posaconazole]
- solubility [3]: 500 µg/mL (≈ 0.713 mM)
- Solubility according to USP definition [4]: Insoluble
- Reported solubility in water ([4]; water): <0.0001 mg/mL
- solubility [5]: 270 µg/mL (≈ 0.385 mM)

Molecule: Cc1ccc(-c2cc(C(F)(F)F)nn2-c2ccc(S(N)(=O)=O)cc2)cc1 [Celecoxib]
- solubility [3]: 7300 µg/mL (≈ 19.1 mM)
- Solubility according to USP definition [4]: Very poorly
- Reported solubility in water ([4]; water): 0.001-0.0001 mg/mL
- solubility [5]: 1030 µg/mL (≈ 2.7 mM)

Molecule: CC(=O)[C@H]1CC[C@H]2[C@@H]3CCC4=CC(=O)CC[C@]4(C)[C@H]3CC[C@]12C [Progesterone]
- solubility [3]: 12000 µg/mL (≈ 38.2 mM)
- Solubility according to USP definition [4]: Sparingly
- Reported solubility in water ([4]; water): 0.017 mg/mL
- solubility [5]: 4060 µg/mL (≈ 12.9 mM)

Molecule: CC1=C(C/C=C(\C)CCC[C@H](C)CCC[C@H](C)CCCC(C)C)C(=O)c2ccccc2C1=O [Phytonadione]
- solubility [3]: 28200 µg/mL (≈ 62.6 mM)
- Solubility according to USP definition [4]: Insoluble
- Reported solubility in water ([4]; water): <0.0001 mg/mL
- solubility [5]: 150 µg/mL (≈ 0.333 mM)
